In assay [1] the target is T1, Estrogen receptor beta (Homo sapiens, UniProt Q92731).
Assay [2] concerns the target T1, Estrogen receptor beta. Briefly: blockers of SRC-3 recruitment to ERβ – biochemical, ELISA, streptavidin-HRP readout, orthogonal assay, confirmation (AID 1060).
For a further assay, the target named is Phospholipase D2 (Homo sapiens, UniProt O14939). Description: PLD2 Cellular Concentration Response Study. The assay is classed as functional.
The next assay addresses T2, Phospholipase D1 (Homo sapiens, UniProt Q13393).
T2 sequence (Q13393 whole entry): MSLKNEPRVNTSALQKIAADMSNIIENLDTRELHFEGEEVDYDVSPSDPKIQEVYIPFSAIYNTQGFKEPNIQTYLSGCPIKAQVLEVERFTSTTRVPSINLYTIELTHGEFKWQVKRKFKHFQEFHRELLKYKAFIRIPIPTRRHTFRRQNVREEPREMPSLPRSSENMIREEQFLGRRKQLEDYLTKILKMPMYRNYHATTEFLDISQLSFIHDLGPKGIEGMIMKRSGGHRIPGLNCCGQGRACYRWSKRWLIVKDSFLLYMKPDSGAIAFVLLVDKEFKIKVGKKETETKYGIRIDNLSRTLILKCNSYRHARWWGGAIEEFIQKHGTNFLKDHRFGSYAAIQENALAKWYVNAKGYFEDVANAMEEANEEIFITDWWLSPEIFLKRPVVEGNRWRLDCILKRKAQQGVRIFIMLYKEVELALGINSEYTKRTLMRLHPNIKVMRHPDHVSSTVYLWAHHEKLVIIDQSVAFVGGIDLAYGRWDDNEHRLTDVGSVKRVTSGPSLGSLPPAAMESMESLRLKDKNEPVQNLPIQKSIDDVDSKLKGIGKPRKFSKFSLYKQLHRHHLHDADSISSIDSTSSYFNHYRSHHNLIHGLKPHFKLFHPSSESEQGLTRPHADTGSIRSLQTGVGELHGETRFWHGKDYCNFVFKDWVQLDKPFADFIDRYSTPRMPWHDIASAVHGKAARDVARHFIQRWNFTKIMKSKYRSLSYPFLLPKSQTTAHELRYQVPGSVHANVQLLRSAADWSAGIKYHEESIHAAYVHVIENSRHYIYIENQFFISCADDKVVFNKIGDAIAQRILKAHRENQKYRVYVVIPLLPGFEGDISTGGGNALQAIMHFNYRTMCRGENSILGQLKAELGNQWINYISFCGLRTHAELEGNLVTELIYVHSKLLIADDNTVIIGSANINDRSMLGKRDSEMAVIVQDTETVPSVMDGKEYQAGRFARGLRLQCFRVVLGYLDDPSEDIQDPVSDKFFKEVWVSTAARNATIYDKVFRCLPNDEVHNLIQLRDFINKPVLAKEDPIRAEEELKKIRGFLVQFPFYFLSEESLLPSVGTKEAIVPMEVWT
Briefly: PLD1 Cellular Concentration Response Study. The assay is classed as functional.

Assay [3] in a line: viability loss in Vero cells – cytotoxicity control for Vif-APOBEC3G degradation inhibitor project, dose response (AID 1117358). The conditions noted are these: Vero. The assay is classed as functional.
A short description of assay [4]: HIV-1 Vif–A3G interaction blockers – biochemical, TR-FRET, GST-Vif 1-94, biotin-A3G peptide, dose response retest, primary screen (AID 1117319).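 Note: TR-FRET signal of purified GST-Vif binding a biotinylated A3G peptide; inhibitors lower the FRET signal by blocking Vif and A3G binding.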 In kind it is functional. On the technique in general: In TR-FRET formats the signal depends on donor and acceptor labels being close together.
Assay [5] addresses T3, Low molecular weight phosphotyrosine protein phosphatase (Homo sapiens, UniProt P24666).
T3 sequence (P24666 whole entry): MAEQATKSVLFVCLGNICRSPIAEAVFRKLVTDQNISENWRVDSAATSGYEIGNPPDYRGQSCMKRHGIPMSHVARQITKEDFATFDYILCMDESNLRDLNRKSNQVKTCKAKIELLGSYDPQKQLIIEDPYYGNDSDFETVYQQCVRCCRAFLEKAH
Briefly: inhibition of LMPTP-A enzymatic activity – biochemical, OMFP substrate, fluorescence intensity, set 2, dose response (AID 743307). The assay is classed as functional.

Assay [6] has as its target T3, Low molecular weight phosphotyrosine protein phosphatase. Briefly: inhibition of human LMPTP enzyme activity – biochemical, absorbance, pNPP substrate, LMPTP-A isoform, set 2, orthogonal assay, dose response (AID 743308). The assay is classed as functional.
The target of assay [7] is G-protein coupled receptor 183 (Homo sapiens, UniProt P32249). Briefly: SAR confirmation of small molecule antagonists of the EBI2 receptor via a luminescent beta-arrestin assa. The assay is classed as functional.
Another assay concerns the target T4, Protein Tat (Human immunodeficiency virus type 1 group M subtype B (isolate HXB2)(HIV-1), UniProt P04608).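 Note: tat binding to TAR RNA read out by fluorescence polarization.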
T4 sequence (P04608 whole entry): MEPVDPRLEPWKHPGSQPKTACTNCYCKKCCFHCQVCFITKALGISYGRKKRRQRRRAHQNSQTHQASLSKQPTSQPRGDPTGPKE
In kind it is functional.

For assay [8], the target named is RNA-editing ligase 1, mitochondrial (Trypanosoma brucei brucei, UniProt P86926). Briefly: inhibition of trypanosome RNA editing ligase – biochemical, fluorescence, Trypanosoma brucei, dose response (AID 1117295). In kind it is functional.
The target in assay [9] is T5, Replicative DNA helicase DnaB (Mycobacterium tuberculosis, UniProt P9WMR3).
T5 sequence (P9WMR3 whole entry): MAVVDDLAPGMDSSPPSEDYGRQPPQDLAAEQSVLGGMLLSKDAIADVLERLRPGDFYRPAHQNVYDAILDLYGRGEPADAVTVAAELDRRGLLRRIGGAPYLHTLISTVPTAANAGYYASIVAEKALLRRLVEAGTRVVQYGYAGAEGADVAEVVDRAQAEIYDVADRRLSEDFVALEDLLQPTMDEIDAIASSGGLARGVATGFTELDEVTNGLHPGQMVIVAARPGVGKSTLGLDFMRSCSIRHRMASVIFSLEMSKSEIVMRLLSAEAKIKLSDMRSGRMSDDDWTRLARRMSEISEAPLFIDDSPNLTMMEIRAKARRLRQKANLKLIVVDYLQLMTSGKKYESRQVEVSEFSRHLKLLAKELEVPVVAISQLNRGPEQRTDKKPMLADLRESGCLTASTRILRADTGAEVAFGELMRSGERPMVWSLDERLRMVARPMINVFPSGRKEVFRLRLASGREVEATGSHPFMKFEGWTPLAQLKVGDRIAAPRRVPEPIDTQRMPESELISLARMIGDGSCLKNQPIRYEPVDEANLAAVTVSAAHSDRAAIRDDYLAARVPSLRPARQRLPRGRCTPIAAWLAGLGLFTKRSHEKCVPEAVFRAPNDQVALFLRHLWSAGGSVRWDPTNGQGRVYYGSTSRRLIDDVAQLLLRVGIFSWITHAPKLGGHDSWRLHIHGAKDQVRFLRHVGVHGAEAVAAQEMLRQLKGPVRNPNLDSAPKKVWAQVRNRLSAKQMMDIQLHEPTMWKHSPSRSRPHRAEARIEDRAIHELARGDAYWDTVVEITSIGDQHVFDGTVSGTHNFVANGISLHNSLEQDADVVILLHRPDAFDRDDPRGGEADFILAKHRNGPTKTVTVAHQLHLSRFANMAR
Briefly: DnaB intein splicing inhibitors, dose response, biochemical, cell-free fluorescence (AID 449749). The assay is classed as functional.

Assay [10] has as its target Heat shock protein HSP 90-alpha (Homo sapiens, UniProt P07900). The assay is classed as functional, organism-based.
The target in assay [11] is T6, Apoptotic protease-activating factor 1 (Homo sapiens, UniProt O14727).
T6 sequence (O14727 whole entry): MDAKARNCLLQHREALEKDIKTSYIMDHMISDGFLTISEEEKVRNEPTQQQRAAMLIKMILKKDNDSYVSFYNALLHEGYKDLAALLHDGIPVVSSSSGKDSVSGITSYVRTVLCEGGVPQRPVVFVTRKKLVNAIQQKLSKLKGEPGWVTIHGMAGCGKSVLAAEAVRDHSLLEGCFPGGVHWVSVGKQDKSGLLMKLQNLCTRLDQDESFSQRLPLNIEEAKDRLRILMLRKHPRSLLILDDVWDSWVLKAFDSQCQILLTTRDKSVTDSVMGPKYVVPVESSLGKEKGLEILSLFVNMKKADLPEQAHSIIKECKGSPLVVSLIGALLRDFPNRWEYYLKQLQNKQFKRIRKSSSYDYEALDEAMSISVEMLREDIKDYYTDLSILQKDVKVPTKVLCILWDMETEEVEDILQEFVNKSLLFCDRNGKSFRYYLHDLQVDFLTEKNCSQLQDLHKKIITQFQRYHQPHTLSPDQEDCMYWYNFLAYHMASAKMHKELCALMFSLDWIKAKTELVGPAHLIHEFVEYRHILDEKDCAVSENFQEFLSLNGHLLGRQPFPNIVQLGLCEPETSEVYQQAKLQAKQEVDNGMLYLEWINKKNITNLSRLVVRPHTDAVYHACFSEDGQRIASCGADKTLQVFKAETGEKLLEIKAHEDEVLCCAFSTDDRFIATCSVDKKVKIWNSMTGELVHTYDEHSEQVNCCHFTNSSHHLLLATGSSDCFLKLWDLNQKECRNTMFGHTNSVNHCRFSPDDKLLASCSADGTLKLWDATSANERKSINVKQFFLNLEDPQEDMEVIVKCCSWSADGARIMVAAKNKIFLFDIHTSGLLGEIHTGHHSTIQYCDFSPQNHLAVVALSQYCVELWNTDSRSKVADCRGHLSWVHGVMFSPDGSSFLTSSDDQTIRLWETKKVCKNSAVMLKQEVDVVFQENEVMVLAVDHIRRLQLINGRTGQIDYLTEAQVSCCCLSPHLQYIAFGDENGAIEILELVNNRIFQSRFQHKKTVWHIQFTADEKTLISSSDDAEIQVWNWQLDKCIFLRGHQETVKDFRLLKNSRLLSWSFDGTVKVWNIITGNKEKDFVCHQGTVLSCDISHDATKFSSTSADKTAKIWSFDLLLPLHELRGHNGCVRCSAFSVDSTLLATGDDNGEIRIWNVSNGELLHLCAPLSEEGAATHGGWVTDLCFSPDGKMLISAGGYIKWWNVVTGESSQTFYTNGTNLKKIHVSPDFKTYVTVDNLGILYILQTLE
The assay is classed as functional.

For a further assay, the target named is T7, Protein RecA (Mycobacterium tuberculosis, UniProt P9WHJ3).
T7 sequence (P9WHJ3 whole entry): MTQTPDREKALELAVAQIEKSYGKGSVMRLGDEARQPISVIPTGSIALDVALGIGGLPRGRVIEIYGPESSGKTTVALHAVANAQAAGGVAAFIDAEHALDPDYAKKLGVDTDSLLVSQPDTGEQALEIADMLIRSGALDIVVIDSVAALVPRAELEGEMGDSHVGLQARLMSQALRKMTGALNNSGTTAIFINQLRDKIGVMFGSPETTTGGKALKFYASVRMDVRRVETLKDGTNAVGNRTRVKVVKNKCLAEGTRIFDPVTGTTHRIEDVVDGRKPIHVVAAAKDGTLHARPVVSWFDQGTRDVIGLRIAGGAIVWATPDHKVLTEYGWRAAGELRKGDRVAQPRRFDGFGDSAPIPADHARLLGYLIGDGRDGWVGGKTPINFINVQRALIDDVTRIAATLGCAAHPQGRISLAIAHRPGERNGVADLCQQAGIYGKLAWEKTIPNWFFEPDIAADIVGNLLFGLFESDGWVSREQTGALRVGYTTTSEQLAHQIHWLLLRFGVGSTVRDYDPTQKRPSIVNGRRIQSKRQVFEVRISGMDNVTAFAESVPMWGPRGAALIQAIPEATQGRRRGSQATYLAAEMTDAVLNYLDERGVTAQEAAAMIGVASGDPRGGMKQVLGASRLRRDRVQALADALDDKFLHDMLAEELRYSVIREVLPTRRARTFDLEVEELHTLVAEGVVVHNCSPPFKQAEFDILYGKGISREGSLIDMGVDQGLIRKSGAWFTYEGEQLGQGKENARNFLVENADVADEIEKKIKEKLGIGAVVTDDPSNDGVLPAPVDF
Briefly: Fluorescence Cell-Free Homogeneous Dose Retest to Identify Inhibitors of RecA-Intein Splicing Activity. [Related pubchem assays (depositor defined):AID2097, AID2223, AID489010, AID492950]. In kind it is functional.

The nature of assay [12]: IC50 of Artemis nuclease activity blockers – biochemical, fluorescence intensity, dose response (AID 720701).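 Note: Artemis endonuclease enzyme.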 The assay is classed as functional.

Calls of active or inactive are those of the source. Bounds are passed on as bounds.

T1 sequence (Q92731 whole entry): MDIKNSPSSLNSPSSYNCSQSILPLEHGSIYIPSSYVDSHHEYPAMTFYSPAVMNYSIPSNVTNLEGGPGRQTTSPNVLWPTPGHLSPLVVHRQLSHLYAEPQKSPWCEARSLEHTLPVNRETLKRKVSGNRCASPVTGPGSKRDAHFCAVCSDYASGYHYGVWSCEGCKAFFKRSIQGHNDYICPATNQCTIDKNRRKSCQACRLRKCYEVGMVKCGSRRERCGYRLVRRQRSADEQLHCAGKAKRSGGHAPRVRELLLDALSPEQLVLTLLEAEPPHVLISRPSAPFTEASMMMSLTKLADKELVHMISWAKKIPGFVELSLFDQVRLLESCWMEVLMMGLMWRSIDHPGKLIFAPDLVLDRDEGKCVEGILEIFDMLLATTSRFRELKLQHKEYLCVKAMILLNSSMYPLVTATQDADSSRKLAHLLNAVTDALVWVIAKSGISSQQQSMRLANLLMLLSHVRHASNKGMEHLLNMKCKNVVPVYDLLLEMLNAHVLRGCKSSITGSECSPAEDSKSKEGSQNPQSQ
Chain of Phospholipase D2 (O14939 whole entry): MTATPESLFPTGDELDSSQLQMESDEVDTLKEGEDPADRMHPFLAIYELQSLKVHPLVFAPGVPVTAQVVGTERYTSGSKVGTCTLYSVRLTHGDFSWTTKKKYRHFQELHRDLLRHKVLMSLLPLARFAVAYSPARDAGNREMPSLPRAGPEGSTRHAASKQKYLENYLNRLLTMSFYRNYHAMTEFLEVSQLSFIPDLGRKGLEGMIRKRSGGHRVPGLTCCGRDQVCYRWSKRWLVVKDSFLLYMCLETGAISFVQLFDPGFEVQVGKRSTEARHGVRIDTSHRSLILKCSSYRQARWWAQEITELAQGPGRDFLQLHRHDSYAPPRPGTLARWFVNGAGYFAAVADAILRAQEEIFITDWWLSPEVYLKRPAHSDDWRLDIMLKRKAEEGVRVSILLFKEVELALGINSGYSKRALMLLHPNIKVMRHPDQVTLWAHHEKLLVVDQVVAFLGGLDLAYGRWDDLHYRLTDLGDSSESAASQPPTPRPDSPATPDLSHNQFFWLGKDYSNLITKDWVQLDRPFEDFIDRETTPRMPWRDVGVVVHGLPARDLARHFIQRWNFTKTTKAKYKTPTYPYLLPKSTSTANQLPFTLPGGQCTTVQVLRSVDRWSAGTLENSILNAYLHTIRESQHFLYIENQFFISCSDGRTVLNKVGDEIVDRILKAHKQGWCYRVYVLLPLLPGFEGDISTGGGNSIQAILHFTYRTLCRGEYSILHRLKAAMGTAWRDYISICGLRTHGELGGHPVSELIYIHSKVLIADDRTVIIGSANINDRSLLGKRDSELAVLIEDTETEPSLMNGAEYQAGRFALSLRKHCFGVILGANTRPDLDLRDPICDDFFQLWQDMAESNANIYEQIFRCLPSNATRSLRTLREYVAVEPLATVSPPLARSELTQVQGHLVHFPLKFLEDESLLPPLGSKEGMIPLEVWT
Chain of G-protein coupled receptor 183 (P32249 whole entry): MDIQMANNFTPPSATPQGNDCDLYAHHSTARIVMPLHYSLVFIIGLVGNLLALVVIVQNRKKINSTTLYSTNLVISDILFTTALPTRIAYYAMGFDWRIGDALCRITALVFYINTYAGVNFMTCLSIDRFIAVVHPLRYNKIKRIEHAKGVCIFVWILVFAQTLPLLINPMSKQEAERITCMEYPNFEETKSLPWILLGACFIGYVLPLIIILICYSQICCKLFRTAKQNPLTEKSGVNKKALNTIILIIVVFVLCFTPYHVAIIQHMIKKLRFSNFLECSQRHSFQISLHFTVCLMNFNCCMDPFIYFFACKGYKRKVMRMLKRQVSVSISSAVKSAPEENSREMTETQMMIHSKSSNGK
Chain of RNA-editing ligase 1, mitochondrial (P86926 whole entry): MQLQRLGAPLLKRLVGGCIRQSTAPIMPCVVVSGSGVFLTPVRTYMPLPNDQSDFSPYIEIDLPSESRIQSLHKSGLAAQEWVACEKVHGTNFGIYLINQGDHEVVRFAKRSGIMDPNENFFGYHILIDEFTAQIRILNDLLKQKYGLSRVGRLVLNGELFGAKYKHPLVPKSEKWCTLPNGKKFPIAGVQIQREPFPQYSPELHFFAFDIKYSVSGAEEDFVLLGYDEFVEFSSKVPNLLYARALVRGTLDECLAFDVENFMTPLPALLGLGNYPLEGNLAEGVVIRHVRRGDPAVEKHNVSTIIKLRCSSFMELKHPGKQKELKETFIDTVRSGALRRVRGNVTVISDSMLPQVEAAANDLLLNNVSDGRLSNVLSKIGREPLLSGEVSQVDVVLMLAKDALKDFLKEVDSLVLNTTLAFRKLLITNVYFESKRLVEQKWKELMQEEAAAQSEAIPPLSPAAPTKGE

With `Cc1noc(C)c1CSCC(=O)OCC(=O)Nc1sccc1C#N`, the IC50 – broadly, the point on the concentration scale where inhibition reaches its midpoint – on Estrogen receptor beta [1] is 15.8 µM (active); at Estrogen receptor beta [2], < 77 µM (not active). With `O=C(NCCN1CCC2(CC1)C(=O)NCN2Cc1cccnc1)c1ccc2ccccc2c1Br`, the figures for the IC50 at Phospholipase D2 and at Phospholipase D1 were 1.24 µM (active) and 20 µM (active), respectively. `C=C(Cl)COc1ccc2c(CCC)cc(=O)oc2c1`: the CC50 – broadly, the concentration giving 50% cytotoxicity – in assay [3] is > 40 µM (active).

Regarding `O=C(NCCN1CCC2(CC1)C(=O)NCN2Cc1cccc2ccccc12)c1ccc2ccccc2c1`, the IC50 on Phospholipase D2 is 0.16 µM (active); at Phospholipase D1 it was 1.05 µM (active).

Consider `O=C(O)c1ccccc1NS(=O)(=O)c1ccccc1C(F)(F)F`, for which, in assay [4], the IC50 is > 100 µM (active). Consider `c1ccc(-c2nc(N3CCCCCC3)c3ccccc3n2)cc1`, for which the figures for the IC50 in assay [5] and in assay [6] were 72.2 µM (inactive) and > 80 µM (inactive), respectively. Take `O=C(Cc1ccc(Br)cc1)N1CCN(Cc2ccc(Cl)cc2)CC1`: the IC50 in assay [7] was > 1 µM (inactive). Take `CCc1nc(OCc2ccco2)c2sc3nc4c(cc3c2n1)COC(C)(C)C4`: the IC50 (on Protein Tat; in [4]) was > 100 µM (active) in each case. Also, the CC50 in assay [3] is > 40 µM (active).

In the case of `COC(=O)C1=C(C)N(Cc2ccccc2C(F)(F)F)C(NCc2ccc(C(F)(F)F)cc2)=NC1c1ccc(Cl)cc1` (stereo not drawn), in assay [8], the IC50 was > 96.6 µM (inactive). Turning to `O=C(/C=C/c1ccc(Br)cc1)N1CCN(Cc2ccc(Cl)cc2)CC1`, the IC50 in [7] was 0.00103 µM (active). Regarding `Cc1[nH]n(-c2ccccc2)c(=O)c1C(C[N+](=O)[O-])c1ccc(Br)cc1` (stereo not drawn), the AC50 (usually the concentration giving half of the maximal activity seen) in assay [9] is 7.55 µM (active); in assay [10] it was 7.85 µM (active). The IC50 in assay [11] was 4.17 µM (active); in assay [12], > 20 µM (inactive). The EC50 (as a rule, the concentration giving half of the maximal effect) on Protein RecA is 5.73 µM (active). Regarding `c1ccc(-c2cc(NCCCN3CCOCC3)c3ccccc3n2)cc1`, the IC50 in [5] is 7.68 µM (active); in [6], 12.6 µM (active).

The record behind these values is ChEMBL document CHEMBL1201862, “PubChem BioAssay data set” (2004).
